{
  "source": "paper PMC4441536",
  "about": "(Journal of Medicinal Chemistry, 2015)",
  "key": {"CB1 (h)": {"biological_target": "CB1 (h) (Homo sapiens, UniProt P21554)", "sequence (P21554 whole entry)": "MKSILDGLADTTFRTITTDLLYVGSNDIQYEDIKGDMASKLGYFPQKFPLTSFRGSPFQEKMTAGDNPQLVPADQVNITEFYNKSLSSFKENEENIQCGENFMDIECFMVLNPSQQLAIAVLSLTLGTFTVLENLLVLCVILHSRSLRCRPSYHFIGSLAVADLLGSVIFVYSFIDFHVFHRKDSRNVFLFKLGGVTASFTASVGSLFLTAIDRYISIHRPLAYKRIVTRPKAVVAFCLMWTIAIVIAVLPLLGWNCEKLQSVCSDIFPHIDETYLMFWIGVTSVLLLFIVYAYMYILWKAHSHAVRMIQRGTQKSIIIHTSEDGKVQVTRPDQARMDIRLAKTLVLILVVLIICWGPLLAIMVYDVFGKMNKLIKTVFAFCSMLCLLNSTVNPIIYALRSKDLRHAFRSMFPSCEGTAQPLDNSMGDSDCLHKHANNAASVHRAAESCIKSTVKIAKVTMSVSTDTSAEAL"}, "M3 (h)": {"biological_target": "M3 (h) (Homo sapiens, UniProt P20309)"}, "5-HT1A (h)": {"biological_target": "5-HT1A (h) (Homo sapiens, UniProt P08908)"}, "in vivo": {"assay": "in vivo", "conditions": "mouse, 5 mg/kg; for half-life: Terminal Half-Life"}, "physchem [1]": {"assay": "physchem", "conditions": "D2O"}, "[2]": {"conditions": "mouse, in vivo; for AUC / Cmax / Terminal Half-Life: 5 mg/kg"}, "physchem [3]": {"assay": "physchem"}, "A3 (h)": {"biological_target": "A3 (h) (Homo sapiens, UniProt P0DMS8)"}, "5-HT3 (h)": {"biological_target": "5-HT3 (h) (Homo sapiens, UniProt P46098)"}, "B2 (h)": {"biological_target": "B2 (h) (Homo sapiens, UniProt P30411)"}, "NK3 (h)": {"biological_target": "NK3 (h) (Homo sapiens, UniProt P29371)", "sequence (P29371 whole entry)": "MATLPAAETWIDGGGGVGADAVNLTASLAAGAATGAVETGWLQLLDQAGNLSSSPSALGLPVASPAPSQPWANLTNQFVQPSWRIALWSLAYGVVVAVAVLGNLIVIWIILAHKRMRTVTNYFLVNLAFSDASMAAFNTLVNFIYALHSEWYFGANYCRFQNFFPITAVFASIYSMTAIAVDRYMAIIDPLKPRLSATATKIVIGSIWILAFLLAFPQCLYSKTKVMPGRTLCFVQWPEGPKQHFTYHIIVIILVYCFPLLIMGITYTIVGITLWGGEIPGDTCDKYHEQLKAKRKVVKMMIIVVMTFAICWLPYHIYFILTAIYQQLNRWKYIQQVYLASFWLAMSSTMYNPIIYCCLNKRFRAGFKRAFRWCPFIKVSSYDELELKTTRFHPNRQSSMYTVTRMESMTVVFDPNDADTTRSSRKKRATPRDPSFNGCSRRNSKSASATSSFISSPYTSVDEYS"}, "D1 (h)": {"biological_target": "D1 (h) (Homo sapiens, UniProt P21728)", "sequence (P21728 whole entry)": "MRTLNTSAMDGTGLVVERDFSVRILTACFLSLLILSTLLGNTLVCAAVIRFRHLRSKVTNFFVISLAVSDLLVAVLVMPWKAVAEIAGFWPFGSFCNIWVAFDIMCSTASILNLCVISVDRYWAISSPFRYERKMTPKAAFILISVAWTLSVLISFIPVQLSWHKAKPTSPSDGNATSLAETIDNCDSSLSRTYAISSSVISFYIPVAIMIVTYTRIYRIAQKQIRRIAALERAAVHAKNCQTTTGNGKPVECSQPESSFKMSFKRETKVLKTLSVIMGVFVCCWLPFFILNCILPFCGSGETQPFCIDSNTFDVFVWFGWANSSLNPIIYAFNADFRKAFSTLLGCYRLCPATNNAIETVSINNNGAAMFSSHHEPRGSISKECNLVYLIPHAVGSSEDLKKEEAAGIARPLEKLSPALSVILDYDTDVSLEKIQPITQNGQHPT"}, "NK2 (h)": {"biological_target": "NK2 (h) (Homo sapiens, UniProt P21452)"}, "beta 1 (h)": {"biological_target": "beta 1 (h) (Homo sapiens, UniProt P08588)", "sequence (P08588 whole entry)": "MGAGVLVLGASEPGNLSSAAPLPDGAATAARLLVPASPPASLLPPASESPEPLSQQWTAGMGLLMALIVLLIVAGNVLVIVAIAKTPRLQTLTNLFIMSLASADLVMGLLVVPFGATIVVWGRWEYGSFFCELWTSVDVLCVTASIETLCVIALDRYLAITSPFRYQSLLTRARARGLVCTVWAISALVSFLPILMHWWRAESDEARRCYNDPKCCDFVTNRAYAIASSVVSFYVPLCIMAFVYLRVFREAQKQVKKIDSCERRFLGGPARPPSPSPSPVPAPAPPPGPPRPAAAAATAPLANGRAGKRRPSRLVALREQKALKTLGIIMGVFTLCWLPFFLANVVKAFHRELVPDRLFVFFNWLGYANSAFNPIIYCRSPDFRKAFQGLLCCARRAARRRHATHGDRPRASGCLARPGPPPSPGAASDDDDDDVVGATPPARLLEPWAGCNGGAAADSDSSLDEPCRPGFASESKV"}, "H2 (h)": {"biological_target": "H2 (h) (Homo sapiens, UniProt P25021)", "sequence (P25021 whole entry)": "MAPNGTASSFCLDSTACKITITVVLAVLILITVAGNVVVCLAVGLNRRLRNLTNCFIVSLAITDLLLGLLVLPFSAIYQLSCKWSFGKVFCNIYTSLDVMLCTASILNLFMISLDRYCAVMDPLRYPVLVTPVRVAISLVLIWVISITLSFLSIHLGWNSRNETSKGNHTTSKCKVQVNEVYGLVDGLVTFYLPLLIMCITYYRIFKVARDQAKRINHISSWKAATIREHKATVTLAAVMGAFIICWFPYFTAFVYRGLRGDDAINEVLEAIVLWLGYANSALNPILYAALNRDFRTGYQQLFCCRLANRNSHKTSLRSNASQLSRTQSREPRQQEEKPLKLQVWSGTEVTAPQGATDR"}, "5-HT2A (h)": {"biological_target": "5-HT2A (h) (Homo sapiens, UniProt P28223)", "sequence (P28223 whole entry)": "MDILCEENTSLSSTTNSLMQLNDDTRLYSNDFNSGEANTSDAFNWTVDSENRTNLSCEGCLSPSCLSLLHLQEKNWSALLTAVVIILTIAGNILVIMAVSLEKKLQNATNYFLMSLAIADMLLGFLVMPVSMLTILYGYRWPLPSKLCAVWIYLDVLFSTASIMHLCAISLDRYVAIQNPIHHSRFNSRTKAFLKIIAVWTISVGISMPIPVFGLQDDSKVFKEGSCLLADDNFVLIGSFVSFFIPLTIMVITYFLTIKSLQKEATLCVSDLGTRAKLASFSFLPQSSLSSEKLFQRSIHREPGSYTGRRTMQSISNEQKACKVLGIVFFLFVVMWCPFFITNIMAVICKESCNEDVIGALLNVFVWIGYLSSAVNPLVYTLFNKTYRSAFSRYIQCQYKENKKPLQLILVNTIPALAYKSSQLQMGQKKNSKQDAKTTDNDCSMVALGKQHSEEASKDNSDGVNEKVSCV"}, "MT1 (ML1A) (h)": {"biological_target": "MT1 (ML1A) (h) (Homo sapiens, UniProt P48039)", "sequence (P48039 whole entry)": "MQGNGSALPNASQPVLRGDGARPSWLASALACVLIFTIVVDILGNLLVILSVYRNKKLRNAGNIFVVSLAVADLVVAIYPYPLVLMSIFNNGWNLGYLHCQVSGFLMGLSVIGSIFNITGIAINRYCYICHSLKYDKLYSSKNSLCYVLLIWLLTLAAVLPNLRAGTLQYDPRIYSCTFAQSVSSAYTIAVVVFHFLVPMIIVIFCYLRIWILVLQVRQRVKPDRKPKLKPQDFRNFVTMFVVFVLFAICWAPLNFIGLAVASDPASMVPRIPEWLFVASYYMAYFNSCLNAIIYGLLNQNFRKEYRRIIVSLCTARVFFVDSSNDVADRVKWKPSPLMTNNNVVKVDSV"}, "M2 (h)": {"biological_target": "M2 (h) (Homo sapiens, UniProt P08172)"}, "AT1 (h)": {"biological_target": "AT1 (h) (Homo sapiens, UniProt P30556)"}, "5-HT6 (h)": {"biological_target": "5-HT6 (h) (Homo sapiens, UniProt P50406)", "sequence (P50406 whole entry)": "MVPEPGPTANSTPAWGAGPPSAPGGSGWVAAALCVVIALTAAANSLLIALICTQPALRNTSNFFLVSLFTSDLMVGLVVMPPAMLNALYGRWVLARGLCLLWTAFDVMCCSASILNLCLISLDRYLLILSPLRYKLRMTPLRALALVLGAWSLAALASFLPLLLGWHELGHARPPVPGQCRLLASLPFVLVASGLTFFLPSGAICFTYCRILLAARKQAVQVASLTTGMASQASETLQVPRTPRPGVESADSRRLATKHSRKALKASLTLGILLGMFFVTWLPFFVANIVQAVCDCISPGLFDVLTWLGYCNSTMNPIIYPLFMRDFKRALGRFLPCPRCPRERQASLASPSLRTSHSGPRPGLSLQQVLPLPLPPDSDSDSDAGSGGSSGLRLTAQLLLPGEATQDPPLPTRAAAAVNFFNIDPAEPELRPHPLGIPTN"}, "5-HT1B": {"biological_target": "5-HT1B (Rattus norvegicus, UniProt P28564)", "sequence (P28564 whole entry)": "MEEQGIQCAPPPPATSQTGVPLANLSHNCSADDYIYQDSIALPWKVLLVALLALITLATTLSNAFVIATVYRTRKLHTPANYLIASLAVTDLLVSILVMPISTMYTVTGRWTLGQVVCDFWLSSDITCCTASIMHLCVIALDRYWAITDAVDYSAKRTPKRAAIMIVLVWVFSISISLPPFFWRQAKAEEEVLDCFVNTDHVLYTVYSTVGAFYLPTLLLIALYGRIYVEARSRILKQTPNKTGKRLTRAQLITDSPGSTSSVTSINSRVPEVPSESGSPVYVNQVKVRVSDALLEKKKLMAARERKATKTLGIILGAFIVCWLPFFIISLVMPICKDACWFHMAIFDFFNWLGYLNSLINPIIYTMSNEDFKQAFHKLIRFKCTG"}, "5-HT7 (h)": {"biological_target": "5-HT7 (h) (Homo sapiens, UniProt P34969)", "sequence (P34969 whole entry)": "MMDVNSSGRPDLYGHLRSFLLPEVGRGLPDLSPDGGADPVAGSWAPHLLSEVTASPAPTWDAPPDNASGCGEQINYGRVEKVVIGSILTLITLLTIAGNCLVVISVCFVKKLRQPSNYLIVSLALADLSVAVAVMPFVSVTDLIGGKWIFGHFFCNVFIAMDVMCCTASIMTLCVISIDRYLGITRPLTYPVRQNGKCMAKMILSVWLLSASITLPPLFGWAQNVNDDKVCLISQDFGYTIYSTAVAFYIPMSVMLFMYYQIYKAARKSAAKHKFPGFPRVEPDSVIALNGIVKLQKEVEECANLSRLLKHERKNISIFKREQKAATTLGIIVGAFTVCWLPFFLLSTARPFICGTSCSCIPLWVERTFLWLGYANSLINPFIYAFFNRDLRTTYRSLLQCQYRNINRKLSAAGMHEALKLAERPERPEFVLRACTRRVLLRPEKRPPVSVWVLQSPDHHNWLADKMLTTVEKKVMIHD"}, "5-HT5a (h)": {"biological_target": "5-HT5a (h) (Homo sapiens, UniProt P47898)"}, "D2S (h)": {"biological_target": "D2S (h) (Homo sapiens, UniProt P14416)", "sequence (P14416 1-414 isoform P14416-2)": "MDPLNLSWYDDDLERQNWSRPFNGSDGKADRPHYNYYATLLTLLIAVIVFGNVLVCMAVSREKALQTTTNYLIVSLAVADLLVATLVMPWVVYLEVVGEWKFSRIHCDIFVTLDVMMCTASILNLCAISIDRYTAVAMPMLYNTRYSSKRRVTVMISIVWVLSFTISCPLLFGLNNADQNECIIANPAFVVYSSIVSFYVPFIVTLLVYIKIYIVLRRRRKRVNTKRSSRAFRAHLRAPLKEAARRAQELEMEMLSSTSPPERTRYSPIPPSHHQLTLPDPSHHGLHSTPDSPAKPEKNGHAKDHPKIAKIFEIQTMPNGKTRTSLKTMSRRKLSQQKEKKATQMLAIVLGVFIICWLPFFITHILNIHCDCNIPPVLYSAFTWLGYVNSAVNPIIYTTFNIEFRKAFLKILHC"}, "[4]": {"conditions": "iv, IV 5 mg/kg, individual animals 2, 3, 4"}, "[5]": {"conditions": "po, PO 5 mg/kg, individual animals 6, 7, 8"}},
  "note": "Values joined by “and” are separate entries in the source; they are usually repeats but may differ in a detail not shown here. Identical values can stand only once. Like-named read-outs stand apart in the source and are kept apart here.",
  "data": [
    {"compound": "CCCCCCC(C)(C)c1ccc([C@@H]2C[C@H](O)CC[C@H]2CCCO)c(O)c1", "note": "[CP 55940]", "values": [
      {"measurement": "nH Ref", "setting": "CB1 (h)", "result": 0.8}
    ]},
    {"compound": "C[N+]1(C)CCC(OC(=O)C(c2ccccc2)c2ccccc2)CC1.[I-]", "note": "[Compound 4-DAMP, 4-DAMP]", "values": [
      {"measurement": "nH Ref", "setting": "M3 (h)", "result": 1.3}
    ]},
    {"compound": "CCCN(CCC)C1CCc2cccc(O)c2C1", "note": "(centres unmarked) [Compound 8-OH-DPAT, 8-OH-DPAT]", "values": [
      {"measurement": "nH Ref", "setting": "5-HT1A (h)", "result": 1.2}
    ]},
    {"compound": "Cn1cc(CCn2cnc(-c3cnn(C)c3)c2-c2ccc(C#N)cc2)cn1", "note": "[Compound 13, 4-(4-(1-methyl-1H-pyrazol-4-yl)-1-(2-(1-methyl-1H-pyrazol-4-yl)ethyl)-1H-imidazol-5-yl)benzonitrile]", "values": [
      {"measurement": "Cmax", "setting": "in vivo; [4]", "result": 9.53, "unit": "µM"},
      {"measurement": "half-life", "setting": "in vivo; [4]", "result": 50.9, "unit": "min"},
      {"measurement": "Tmax", "setting": "in vivo; iv, Tmax, IV 5 mg/kg, individual animals 2, 3, 4", "result": 4.98, "unit": "min"},
      {"measurement": "bioavailability", "setting": "in vivo; po", "result": 70, "unit": "%"},
      {"measurement": "Cmax", "setting": "in vivo; [5]", "result": 6.46, "unit": "µM"},
      {"measurement": "half-life", "setting": "in vivo; [5]", "result": 45.4, "unit": "min"},
      {"measurement": "solubility at 24 h", "setting": "physchem [1]", "result": 25, "unit": "mM"},
      {"measurement": "volume of distribution", "setting": "[2]", "result": "moderate"},
      {"measurement": "AUC", "setting": "[2]; iv", "result": "5.875 µM·h and 7.614 µM·h"},
      {"measurement": "Cmax", "setting": "[2]; iv", "result": "10.4 µM and 13.8 µM"},
      {"measurement": "Terminal Half-Life", "setting": "[2]; iv", "result": "59.8 min and 56.6 min"},
      {"measurement": "AUC", "setting": "[2]; po", "result": "5.161 µM·h and 4.542 µM·h"},
      {"measurement": "Cmax", "setting": "[2]; po", "result": "6.12 µM and 4.88 µM"},
      {"measurement": "Terminal Half-Life", "setting": "[2]; po", "result": "68.4 min and 49.3 min"},
      {"measurement": "logD", "setting": "physchem [3]", "result": 1.05}
    ]},
    {"compound": "CNC(=O)[C@H]1O[C@@H](n2cnc3c(NCc4cccc(I)c4)ncnc32)[C@H](O)[C@@H]1O", "note": "[IB-MECA]", "values": [
      {"measurement": "nH Ref", "setting": "A3 (h)", "result": 0.7}
    ]},
    {"compound": "CN1[C@@H]2CC[C@H]1C[C@@H](OC(=O)c1cc(Cl)cc(Cl)c1)C2", "note": "[MDL 72222]", "values": [
      {"measurement": "nH Ref", "setting": "5-HT3 (h)", "result": 1.1}
    ]},
    {"compound": "N=C(N)NCCC[C@@H](N)C(=O)N[C@@H](CCCNC(=N)N)C(=O)N1CCC[C@H]1C(=O)N1C[C@H](O)C[C@H]1C(=O)NCC(=O)N[C@@H](Cc1ccccc1)C(=O)N[C@@H](CO)C(=O)N[C@H](Cc1ccccc1)C(=O)N[C@@H](Cc1ccccc1)C(=O)N[C@@H](CCCNC(=N)N)C(=O)O", "note": "[NPC 567]", "values": [
      {"measurement": "nH Ref", "setting": "B2 (h)", "result": 0.8}
    ]},
    {"compound": "CC[C@H](NC(=O)c1c(C)c(-c2ccccc2)nc2ccccc12)c1ccccc1", "note": "[SB 222200]", "values": [
      {"measurement": "nH Ref", "setting": "NK3 (h)", "result": 1.0}
    ]},
    {"compound": "CN1CCc2cc(Cl)c(O)cc2[C@@H](c2ccccc2)C1", "note": "[SCH 23390]", "values": [
      {"measurement": "nH Ref", "setting": "D1 (h)", "result": 0.9}
    ]},
    {"compound": "CCCC[C@H](NC(=O)[C@H](CC(C)C)NC(=O)CNC(=O)[C@@H](NC(=O)[C@H](Cc1ccccc1)NC(=O)[C@H](CO)NC(=O)[C@@H](N)CC(=O)O)C(C)C)C(N)=O", "note": "[[Nleu10]-NKA (4-10)]", "values": [
      {"measurement": "nH Ref", "setting": "NK2 (h)", "result": 0.9}
    ]},
    {"compound": "CC(C)NCC(O)COc1ccc(CC(N)=O)cc1", "note": "(centres unmarked) [atenolol]", "values": [
      {"measurement": "nH Ref", "setting": "beta 1 (h)", "result": 0.9}
    ]},
    {"compound": "CN/C(=N/CCSCc1nc[nH]c1C)NC#N", "note": "[cimetidine]", "values": [
      {"measurement": "nH Ref", "setting": "H2 (h)", "result": 0.9}
    ]},
    {"compound": "O=C(c1ccc(F)cc1)C1CCN(CCn2c(=O)[nH]c3ccccc3c2=O)CC1", "note": "[ketanserin]", "values": [
      {"measurement": "nH Ref", "setting": "5-HT2A (h)", "result": 1.2}
    ]},
    {"compound": "COc1ccc2[nH]cc(CCNC(C)=O)c2c1", "note": "[melatonin]", "values": [
      {"measurement": "nH Ref", "setting": "MT1 (ML1A) (h)", "result": 1.3}
    ]},
    {"compound": "COc1ccccc1CNCCCCCCNCCCCCCCCNCCCCCCNCc1ccccc1OC", "note": "[methoctramine]", "values": [
      {"measurement": "nH Ref", "setting": "M2 (h)", "result": 0.8}
    ]},
    {"compound": "CNCC(=O)N[C@@H](CCCN=C(N)N)C(=O)N[C@H](C(=O)N[C@@H](Cc1ccc(O)cc1)C(=O)N[C@H](C(=O)N[C@@H](Cc1cnc[nH]1)C(=O)N1CCC[C@H]1C(=O)N[C@@H](C)C(=O)O)C(C)C)C(C)C", "note": "[saralasin]", "values": [
      {"measurement": "nH Ref", "setting": "AT1 (h)", "result": 0.9}
    ]},
    {"compound": "NCCc1c[nH]c2ccc(O)cc12", "note": "[serotonin]", "values": [
      {"measurement": "nH Ref", "setting": "5-HT6 (h)", "result": 0.8},
      {"measurement": "nH Ref", "setting": "5-HT1B", "result": 1.2},
      {"measurement": "nH Ref", "setting": "5-HT7 (h)", "result": 0.6},
      {"measurement": "nH Ref", "setting": "5-HT5a (h)", "result": 0.7}
    ]},
    {"compound": "(+)butaclamol", "values": [
      {"measurement": "nH Ref", "setting": "D2S (h)", "result": 1.3}
    ]}
  ]
}
